Several values for one entry are separate records, joined by “and”; a condition that tells them apart may be missing. Equal entries are not always repeated. Where no end group is shown, it is not given here.
Tested on: culture of rat medial septum nucleous
Experiment: Enhancing effect on acetylcholine synthesis in culture of rat medial septum nucleus (method of Ojika et al.)
Type: cell-based
Settings: for Ash synthesis (%): Table 4, Concentration 1 x 10⁻⁸, control value as 100%, several single values per cell
Experimental: The neurotrophic peptide and its derivative of the present invention can regulate differentiation and maturation of neuronal cells. That is, the neurotrophic peptide and its derivative accelerate the acetylcholine synthesis in the tissue of medial septum nucleous which is rich in cholinergic neuron. The biological activity can be determined by the method of Ojika, K., et al. [Ojika, K., et al., Japanese Journal of Psycopharmacology, 7, 447-451, (1987)].
The peptides were assayed for a biological activity in accordance with the method of Ojika et al. [Japanese Journal of Psycopharmacology, 7, 447-451 (1987)]. Namely, medial septum nucleous removed from rat embryonal brain (16 day embryo) is cut to small pieces, then the pieces were cultured in the Bottenstein's modified N₂ medium containing 1% FCS of saturation concentration, in Falcon's 35 mm plastic culture dish with 7% CO₂ mixed air, at 36°C. The neurotrophic peptide or its derivative was added to the cultures at initial day. In a control group, no peptide is added. The neurotrophic peptide may be added to the culture at 3 days after the initial day. After 6 days culture, an acetylcholine synthesis activity of cultured tissue was assayed to determine the biological activity of the peptide. The acetylcholine synthesis activity was assayed as follows.
A cultured tissue was pre-incubated in high potasium Tyrode solution buffered with tris-HCl (pH 7.4) containing 98 mM of Nacl and 55 mM of Kcl , then incubated in a buffered solution containing 100 nM [³H] choline chloride (15 Ci/mmol) at 37°C for 30 minutes. After washing out of free [³H] choline, the tissue was dissolved in 1 N formic acid/acetone (15 : 85) solution. Free [³H] choline was converted to phosphocholine by choline kinase (0.1 unit/ml) and [³H] acetylcholine was extracted with tetraphenyl boron (5 mg/ml acetonitrile) to determine the acetylcholine synthesis activity. The activity of cultured tissue for synthesis of acetylcholine was defined as an amount of synthesized acetylcholine per piece of cultured tissue.

Substance: DISQWAG-NH2 [HCNP(3-9)NH₂]
- Ash synthesis (%): 224% and 138%

Substance: H-AADISQWAGPL-OH [f-HCNP, H-Ala-Ala-Asp-Ile-Ser-Gln-Trp-Ala-Gly-Pro-Leu-OH]
- Ach synthesis activity (Table 3, 2.5 pg/ml, 6 days culture, average value in triplet assay, Control 7.1 ± 1.1): 11.3 ± 0.8 fmol/specimen
- acetylcholine synthesis activity as compared with control culture (concentration of 2.5 pg/ml): 159%

Substance: ISQWAGPL [HCNP(4-11)OH, Ile-Ser-Gln-Trp-Ala-Gly-Pro-Leu]
- Ash synthesis (%): 160% and 139%

Substance: Ac-AADISQWAG-NH2 [Ac-HCNP(1-9)NH₂]
- Ash synthesis (%): 227% and 216%
